Measured values as given in ChEMBL document CHEMBL1152412, “Isolation, biomimetic synthesis, and cytotoxic activity of bis(pseudopterane) amines” (J Nat Prod, 2009).

What was measured:
HCT-116 = assay: Cytotoxicity against human HCT116 cells after 72 hrs; type: functional, cell-based; details: HCT-116, 72 h
HeLa = assay: Cytotoxicity against human HeLa cells after 72 hrs; type: functional, cell-based

| Structure (SMILES) | IC50 (HCT-116) [µM] | IC50 (HeLa) [µM] |
| --- | --- | --- |
| C=C(C)[C@H]1C2=CC(C(=O)OC)=C(C[C@H](C(=C)C)[C@@H](O)[C@@H](N[C@H]3C4=C[C@@H](OC4=O)[C@@H](C(=C)C)C4=CC(C(=O)OC)=C(C[C@H](C(=C)C)[C@H]3O)O4)C3=C[C@H]1OC3=O)O2 [BIS(GORGIACEROL)AMINE] | 28 | > 100 |
| C=C(C)[C@H]1C2=CC(C(=O)OC)=C(C[C@H](C(=C)C)[C@H](O)/C=C3\C(=O)O[C@@H]1[C@@H]3N[C@H]1C3=C[C@@H](OC3=O)[C@@H](C(=C)C)C3=CC(C(=O)OC)=C(C[C@H](C(=C)C)[C@H]1O)O3)O2 [BIS(PSEUDOPTERANE)AMINE] | 4 | 42 |
